The record followed here is article PMC8471592, “Characterization of Conserved and Promiscuous Human Rhinovirus CD4 T Cell Epitopes” (Cells, 2021).

Ends that are not written are not given here.

In one experiment the target is HLA-DRB1*04:04 (Homo sapiens, UniProt P01903+P01911, A100R/A169T/F76Y/I96L/K127E/L162R/M171V/N62H/P40V/Q125Y/R42H/S133A/S149N/S66Y/V209L/W38E). Nature of the experiment: Competitive inhibition HLA II binding assay. As to conditions: competition with radiolabeled probe peptide, purified HLA II, 0.3 nM–30 µM, 2-day incubation; mean of three or more independent assays.
The target in a further experiment is HLA-DRB1*09:01 (Homo sapiens, UniProt P01903+P01911, A100R/A103E/D57H/D86V/F55Y/F60I/F76Y/I96F/K127E/L162R/M171V/P40D/Q125H/Q99R/R33Q/R42F/S133A/S66N/T210M/V115G/W38K/Y107V/Y59G/Y89S). Nature of the experiment: Competitive inhibition HLA II binding assay. The following applies: competition with radiolabeled probe peptide, purified HLA II, 0.3 nM–30 µM, 2-day incubation; mean of three or more independent assays.

Another experiment deals with HLA-DRB1*07:01 (Homo sapiens, UniProt P01903+P01911, A100R/A102G/A103Q/D57E/D86V/E43K/F76Y/K127E/L162R/M171V/P40G/Q125H/Q99D/R33Q/R42Y/R54Q/S133A/S66F/T210M/V115G/Y107V/Y59L/Y89S). Nature of the experiment: Competitive inhibition HLA II binding assay. As to conditions: competition with radiolabeled probe peptide, purified HLA II, 0.3 nM–30 µM, 2-day incubation; mean of three or more independent assays.

For another experiment, the target named is HLA-DRB1*08:02 (Homo sapiens, UniProt P01903+P01911, A100R/A103L/A169T/F76Y/H45Y/I96F/K41T/L162R/M171V/P40S/Q125H/Q178H/Q39Y/Q99D/R218S/R42G/S66Y/V115G/W38E). Nature of the experiment: Competitive inhibition HLA II binding assay. The following applies: competition with radiolabeled probe peptide, purified HLA II, 0.3 nM–30 µM, 2-day incubation; mean of three or more independent assays.

For a further experiment, the target named is HLA-DRB1*11:04 (Homo sapiens, UniProt P01903+P01911, A100R/A169T/A87E/I96F/K41T/L162R/M171V/P40S/Q125H/Q178H/Q39Y/Q99D/R42S/S66Y/T262R/W38E). Nature of the experiment: Competitive inhibition HLA II binding assay. As to conditions: competition with radiolabeled probe peptide, purified HLA II, 0.3 nM–30 µM, 2-day incubation; mean of three or more independent assays.

The next experiment deals with HLA-DRB1*13:02 (Homo sapiens, UniProt P01903+P01911, A100E/A169T/K41T/L162R/M171V/P40S/Q125H/Q178H/Q39Y/Q99D/R42S/S66N/T262R/V115G/W38E/Y61H). Kind of experiment: Competitive inhibition HLA II binding assay. The following applies: competition with radiolabeled probe peptide, purified HLA II, 0.3 nM–30 µM, 2-day incubation; mean of three or more independent assays.
In the next experiment the target is HLA-DRB1*11:01 (Homo sapiens, UniProt P01903+P01911, A100R/A169T/A87E/I96F/K41T/L162R/M171V/P40S/Q125H/Q178H/Q39Y/Q99D/R42S/S66Y/T262R/V115G/W38E). Nature of the experiment: Competitive inhibition HLA II binding assay. The following applies: competition with radiolabeled probe peptide, purified HLA II, 0.3 nM–30 µM, 2-day incubation; mean of three or more independent assays.

Another experiment has as its target HLA-DRB1*03:01 (Homo sapiens, UniProt P01903+P01911, A100K/A102G/A103R/A169T/F55Y/I96L/K41T/L162R/M171V/P40S/Q125H/Q178H/Q39Y/R42S/S66N/T106N/T262R/W38E/Y61H). Nature of the experiment: Competitive inhibition HLA II binding assay. As to conditions: competition with radiolabeled probe peptide, purified HLA II, 0.3 nM–30 µM, 2-day incubation; mean of three or more independent assays.

Experiment [1] concerns PBMCs from three HLA II-typed donors. Kind of experiment: IFNγ-ELISPOT assay. The experiment is classed as cell-based, human. The following applies: 10 μM peptide, 1 × 10^5 PBMCs, 24 h, triplicate; positive if >60 SFC/10^6 PBMCs after background subtraction. As for the experimental part:
Peptide-specific IFNγ production by PBMCs from HLA II-typed donors was detected by standard IFNγ ELISPOT assays. Briefly, 96-well PVDF plates (Millipore, Darmstadt, Germany) were coated with anti-IFNγ (1-D1K mAb, Mabtech, Stockholm, Sweden) and 1 × 10^5 PBMCs were pleated with RPMI 1640 (Gibco, Waltham, MA, USA), supplemented with 10% of fetal bovine serum (Gibco, Waltham, MA, USA), 100 µg/mL streptomycin, 100 U/mL penicillin, and 2 mM L-glutamine (Lonza, Basel, Switzerland). Individual RV peptides were added at 10 μM. Plates were incubated at 37 °C and 5% CO2 and, after 24 h, were processed according to the manufacturer’s instructions. PBMCs incubated with 10 μg/mL phytohemagglutinin (PHA) or without any stimuli were used as positive and background controls, respectively. The assay was run in triplicate for each individual peptide. The number of IFNγ-secreting cells (spot forming cells (SFCs)) was determined with an ELISPOT reader (ImmunoSpot 5.0, CTL Analyzers, Shaker Heights, OH, USA).

Regarding `CC[C@H](C)[C@H](NC(=O)CNC(=O)[C@H](CCCCN)NC(=O)[C@H](CCC(=O)O)NC(=O)[C@H](CC(C)C)NC(=O)[C@@H](NC(=O)[C@H](CC(=O)O)NC(=O)[C@H](CCCCN)NC(=O)[C@@H](N)C(C)C)C(C)C)C(=O)N1CCC[C@H]1C(=O)N[C@H](C(=O)N[C@@H](CC(C)C)C(=O)N[C@@H](CCC(N)=O)C(=O)N[C@@H](CO)C(=O)N1CCC[C@H]1C(=O)N[C@H](C(=O)N[C@H](C(=O)N[C@@H](CCC(=O)O)C(=O)O)C(C)C)[C@@H](C)O)[C@@H](C)O` [RVA57–74], the IC50 was determined as 4.1 µM on HLA-DRB1*04:04 and 9.54 µM at HLA-DRB1*09:01.

Consider `CC[C@H](C)[C@H](NC(=O)[C@@H](NC(=O)[C@H](CO)NC(=O)[C@@H](N)CC(=O)O)[C@@H](C)O)C(=O)N[C@H](C(=O)N[C@@H](CO)C(=O)N[C@@H](CCC(N)=O)C(=O)N[C@@H](CC(=O)O)C(=O)N[C@H](C(=O)N[C@@H](C)C(=O)N[C@@H](CC(N)=O)C(=O)N[C@@H](C)C(=O)N[C@H](C(=O)N[C@H](C(=O)NCC(=O)N[C@@H](Cc1ccc(O)cc1)C(=O)NCC(=O)N[C@H](C(=O)O)C(C)C)C(C)C)C(C)C)C(C)C)[C@@H](C)O` [RVA89–106], for which the IC50 at HLA-DRB1*04:04 was 0.019 µM; on HLA-DRB1*07:01, 0.865 µM; on HLA-DRB1*08:02 it was 5.17 µM; on HLA-DRB1*09:01 it was 1.2 µM; on HLA-DRB1*11:04 it was 5.82 µM; on HLA-DRB1*13:02, 6.65 µM.

With `CC(C)C[C@H](NC(=O)[C@H](Cc1ccc(O)cc1)NC(=O)[C@H](Cc1c[nH]cn1)NC(=O)[C@@H]1CCCN1C(=O)[C@H](Cc1c[nH]c2ccccc12)NC(=O)[C@@H](NC(=O)CNC(=O)[C@H](Cc1ccc(O)cc1)NC(=O)CNC(=O)[C@@H](NC(=O)[C@@H](NC(=O)[C@H](C)NC(=O)[C@H](CC(N)=O)NC(=O)[C@H](C)NC(=O)[C@@H](N)C(C)C)C(C)C)C(C)C)C(C)C)C(=O)N[C@H](C(=O)N1CCC[C@H]1C(=O)N[C@@H](CCC(=O)O)C(=O)O)[C@@H](C)O` [RVA97–114], the IC50 was 5.58 µM on HLA-DRB1*04:04; 1.3 µM on HLA-DRB1*07:01; 0.453 µM at HLA-DRB1*08:02; 11.5 µM on HLA-DRB1*09:01; 1.1 µM at HLA-DRB1*11:01; 19.7 µM on HLA-DRB1*11:04. Also, the IC50 at HLA-DRB1*13:02 was found to be 11.6 µM.

As for DLPYVTYLKDELR [RVC1835–1847], the IC50 was 0.773 µM on HLA-DRB1*04:04 and 2.6 µM at HLA-DRB1*08:02.

Turning to GLEPLDLNTSAGFPYV [RVC1791–1806], the IC50 on HLA-DRB1*03:01 was 8.4 µM; at HLA-DRB1*04:04, 1.1 µM; on HLA-DRB1*07:01 it was 1.2 µM; at HLA-DRB1*13:02, 0.062 µM.

For INLRTNNSSTIVVPYIN [RVC258–274], the IC50 on HLA-DRB1*04:04 was 3.43 µM; at HLA-DRB1*07:01 it was 0.411 µM; at HLA-DRB1*09:01 it was 0.84 µM; on HLA-DRB1*13:02, 0.04 µM.

Consider KEKFRDIRRFIP [RVC1582–1592], for which the IC50 on HLA-DRB1*04:04 was determined as 8.68 µM; at HLA-DRB1*07:01, 13 µM; at HLA-DRB1*08:02 it was 0.044 µM; on HLA-DRB1*09:01 it was 2.73 µM; at HLA-DRB1*11:01, 0.033 µM; on HLA-DRB1*11:04 it was 0.101 µM.

Turning to “YEIQESEYYPKHIQY [RVC945–959, RV C 2A peptide, position 945–959]”, the “IFNγ recall response in ELISPOT” value in [1] is listed as “able to stimulate IFNγ production by T cells in at least one donor”.

For the compound “YGDDVIFSY [RVA2029–2037, reference compound]”, in experiment [1], the “IFNγ recall response in ELISPOT” value is “not immunogenic in IFNγ ELISPOT assays”.

The term IC50 denotes the concentration that gives 50% inhibition.
